Measured values published in patent publication US20100189648A1, “INHIBITORS FOR DISRUPTING THE INTERACTION OF UBIQUITINATION RELATED ENZYMES AND USES THEREOF” (priority 2006, published 2010).
≈ marks a conversion by molar mass, not a printed value. Where “and” joins values, the source holds several entries; their conditions need not be identical. Equal values may be shown once. Read-outs that look alike come from different tables or passages of the source.

Columns and labels:
Type in all cases: cell-based, human
MCF-7 = assay: MTT survival assay, breast cancer cell line (MCF-7); details: for IC50: Homo sapiens
How it was run: (§1)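 Survival was measured by MTT reduction after tumour cells had been exposed to a range of compound concentrations for 68 hours at 37 C. Absorbance at 570 nm gave percent inhibition against untreated wells, and IC50 values were fitted by the Bliss method.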

Hela cells = assay: MTT survival assay, cervical cancer line (Hela cells); details: for IC50: Homo sapiens
How it was run: as §1

HCT116 = assay: MTT survival assay, colon cancer cell line (HCT116); details: for IC50: Homo sapiens
Protocol: The effect of the above identified compounds on anti-tumor activity in human carcinoma cells was determined by the MTT survival assay. The MTT assay is a commonly used method in evaluation of cell survival, based on the ability of viable cells to convert MTT (MTT, Sigma, Cat No. 044K5307), a soluble tetrazolium salt [3-(4,5-dimethylthuazole-2-yl)-2,5 diphenyl tetrazolium bromide], into an insoluble formazan precipitate, which is quantitated by spectrophotometry following solubilization in dimethyl sulfoxide (DMSO).
In brief, different carcinoma cells were treated with negative control, various test articles at different concentration, and positive control (DDP), in 96-well tissue culture dishes. Each test article at different concentration is repeated 3 times.
Different carcinoma cells were diluted with 10% FBS and RPM1640 or MEM media to a concentration of 3-5×10^4 per ml suspension. 100 microliter of cells were incubated in each well in 96-well tissue culture dishes at 37 C. The cells were incubated at 37 C on the first day. On the second day, media supernatant was removed and replaced with media and different concentration of test articles (100 microliter in each well). Three Negative control wells and three positive control (DDP) wells were also included. The 96-well plate were incubated at 37 C for another 68 hours. After 68 hours, supernatant of each well was removed. 100 microliter of 1 mg/ml MTT diluted in PBS was injected into each well. The cells were incubated at 37 C for another 4 hours. The cells were then solubilized in 150 microliter DMSO, mixed for 10 minutes and absorbance readings were taken using Microplate reader Bio-Rad Model 550 at 570 nm. IR (cell growth inhibition rate) % was calculated as (OD570 of negative control-OD570 with test article)/OD570 of negative control. IC50 (cell 50% inhibition concentration) at 95% confidence level was calculated with Bliss method.

SMMC-7721 = assay: MTT survival assay, liver cancer cell line (SMMC-7721); details: SMMC-7721 Experiment #2; for IC50: Homo sapiens
How it was run: as §1

SKOV3 = assay: MTT survival assay, ovarian cancer cell line (SKOV3); details: SKOV3 (second table)
How it was run: as §1

U251 = assay: MTT survival assay, glioma cell line (brain tumor U251); details: U251 (second table)
How it was run: as §1

A459 = assay: MTT survival assay, lung cancer cell line (A459); details: A459 Experiment #2; for IC50: Homo sapiens
How it was run: as §1

[1] = 95% confidence limits of IC50, read-out: IC50 (95% confidence level), interval
[2] = Bliss method, unit not printed (concentrations in μg/ml), read-out: IC50 (95% confidence level)

O=C(CSc1cc(COc2ccc(Br)cc2)[nH]n1)c1ccccc1 [Mol 21]
IR (%) (MCF-7; 3.125 μg/ml): 12.5% | OD(A570 nm) (MCF-7; 3.125 μg/ml): 0.789 ± 0.064 | IR (%) (MCF-7; 6.25 μg/ml): 30.9% | OD(A570 nm) (MCF-7; 6.25 μg/ml): 0.624 ± 0.008 | IR (%) (MCF-7; 12.5 μg/ml): 61.6% | OD(A570 nm) (MCF-7; 12.5 μg/ml): 0.346 ± 0.022 | IR (%) (MCF-7; 25 μg/ml): 89.1% | OD(A570 nm) (MCF-7; 25 μg/ml): 0.098 ± 0.006 | IR (%) (MCF-7; 50 μg/ml): 92.4% | OD(A570 nm) (MCF-7; 50 μg/ml): 0.069 ± 0.006 | IR (%) (MCF-7; 100 μg/ml): 92.1% | OD(A570 nm) (MCF-7; 100 μg/ml): 0.072 ± 0.007 | IC50 (MCF-7; MCF7, 95% confidence limits of IC50, read-out: IC50 (95% confidence level), interval): 8.53 to 11.4 µg/mL (≈ 21.2 to 28.4 µM) | IC50 (MCF-7; MCF7, Bliss method, unit not printed (concentrations in μg/ml), read-out: IC50 (95% confidence level)): 9.93 µg/mL (≈ 24.6 µM) | IR (%) (Hela cells; 0.41 μg/ml): 10.0% | OD(A570 nm) (Hela cells; 0.41 μg/ml): 0.668 ± 0.049 | OD(A570 nm) (Hela cells; 1.23 μg/ml): 0.785 ± 0.081 | OD(A570 nm) (Hela cells; 3.70 μg/ml): 0.774 ± 0.066 | IR (%) (Hela cells; 11.11 μg/ml): 35.4% | OD(A570 nm) (Hela cells; 11.11 μg/ml): 0.480 ± 0.035 | IR (%) (Hela cells; 33.33 μg/ml): 73.8% | OD(A570 nm) (Hela cells; 33.33 μg/ml): 0.194 ± 0.031 | IR (%) (Hela cells; 100 μg/ml): 82.5% | OD(A570 nm) (Hela cells; 100 μg/ml): 0.130 ± 0.039 | IC50 (Hela cells; [1]): 18.8 to 26.4 µg/mL (≈ 46.6 to 65.6 µM) | IC50 (Hela cells; [2]): 22.2 µg/mL (≈ 55.1 µM) | IR (%) (HCT116; 3.125 μg/ml): 56.2% and 30.4% | OD(A570 nm) (HCT116; 6.25 μg/ml): 0.300 ± 0.050 and 0.394 ± 0.039 | OD(A570 nm) (HCT116; 12.5 μg/ml): 0.150 ± 0.025 and 0.267 ± 0.035 | IR (%) (HCT116; 25 μg/ml): 80.0% and 81.3% | OD(A570 nm) (HCT116; 25 μg/ml): 0.109 ± 0.006 and 0.101 ± 0.020 | OD(A570 nm) (HCT116; 50 μg/ml): 0.083 ± 0.011 and 0.085 ± 0.004 | IR (%) (HCT116; 100 μg/ml): 84.1% and 84.7% | OD(A570 nm) (HCT116; 100 μg/ml): 0.086 ± 0.012 and 0.083 ± 0.001 | IC50 (HCT116; HCT-116, 95% confidence limits of IC50, read-out: IC50 (95% confidence level), interval): 2.99 to 3.33 µg/mL (≈ 7.42 to 8.26 µM) | IC50 (HCT116; HCT-116, Bliss method, unit not printed (concentrations in μg/ml), read-out: IC50 (95% confidence level)): 3.16 µg/mL (≈ 7.84 µM) | IC50 (SMMC-7721; [1]): 9.32 to 9.71 µg/mL (≈ 23.1 to 24.1 µM) | IC50 (SMMC-7721; [2]): 9.52 µg/mL (≈ 23.6 µM) | IR (%) (SMMC-7721; 3.125 μg/ml): −49.9% | OD(A570 nm) (SMMC-7721; 3.125 μg/ml): 0.690 ± 0.603 | IR (%) (SMMC-7721; 6.25 μg/ml): 65.1% | OD(A570 nm) (SMMC-7721; 6.25 μg/ml): 0.161 ± 0.085 | IR (%) (SMMC-7721; 12.5 μg/ml): 68.3% | OD(A570 nm) (SMMC-7721; 12.5 μg/ml): 0.146 ± 0.041 | IR (%) (SMMC-7721; 25 μg/ml): 72.0% | OD(A570 nm) (SMMC-7721; 25 μg/ml): 0.129 ± 0.006 | IR (%) (SMMC-7721; 50 μg/ml): 82.9% | OD(A570 nm) (SMMC-7721; 50 μg/ml): 0.079 ± 0.005 | IR (%) (SMMC-7721; 100 μg/ml): 83.2% | OD(A570 nm) (SMMC-7721; 100 μg/ml): 0.077 ± 0.009 | IC50 (SKOV3; Homo sapiens, SK-OV-3, Bliss method, unit not printed (concentrations in μg/ml), read-out: IC50 (95% confidence level)): 17.7 µg/mL (≈ 43.9 µM) | IR (%) (SKOV3; 3.125 μg/ml): 28.2% | OD(A570 nm) (SKOV3; 3.125 μg/ml): 0.503 ± 0.031 | IR (%) (SKOV3; 6.25 μg/ml): 24.1% | OD(A570 nm) (SKOV3; 6.25 μg/ml): 0.532 ± 0.025 | IR (%) (SKOV3; 12.5 μg/ml): 34.3% | OD(A570 nm) (SKOV3; 12.5 μg/ml): 0.460 ± 0.195 | IR (%) (SKOV3; 25 μg/ml): 38.8% | OD(A570 nm) (SKOV3; 25 μg/ml): 0.429 ± 0.002 | IR (%) (SKOV3; 50 μg/ml): 83.0% | OD(A570 nm) (SKOV3; 50 μg/ml): 0.119 ± 0.010 | IR (%) (SKOV3; 100 μg/ml): 89.1% | OD(A570 nm) (SKOV3; 100 μg/ml): 0.077 ± 0.011 | IC50 (U251; Homo sapiens, U-251, Bliss method, unit not printed (concentrations in μg/ml), read-out: IC50 (95% confidence level)): 16.2 µg/mL (≈ 40.3 µM) | IR (%) (U251; 3.125 μg/ml): 4.2% | OD(A570 nm) (U251; 3.125 μg/ml): 0.840 ± 0.013 | IR (%) (U251; 6.25 μg/ml): 18.0% | OD(A570 nm) (U251; 6.25 μg/ml): 0.719 ± 0.110 | IR (%) (U251; 12.5 μg/ml): 42.8% | OD(A570 nm) (U251; 12.5 μg/ml): 0.501 ± 0.058 | IR (%) (U251; 25 μg/ml): 73.5% | OD(A570 nm) (U251; 25 μg/ml): 0.232 ± 0.034 | IR (%) (U251; 50 μg/ml): 86.2% | OD(A570 nm) (U251; 50 μg/ml): 0.121 ± 0.019 | IR (%) (U251; 100 μg/ml): 89.2% | OD(A570 nm) (U251; 100 μg/ml): 0.094 ± 0.007 | IR (%) (A459; 3.125 μg/ml): −0.7% | OD(A570 nm) (A459; 3.125 μg/ml): 0.642 ± 0.073 | IR (%) (A459; 6.25 μg/ml): −3.9% | OD(A570 nm) (A459; 6.25 μg/ml): 0.662 ± 0.031 | IR (%) (A459; 12.5 μg/ml): 56.2% | OD(A570 nm) (A459; 12.5 μg/ml): 0.279 ± 0.014 | IR (%) (A459; 25 μg/ml): 81.5% | OD(A570 nm) (A459; 25 μg/ml): 0.118 ± 0.027 | IR (%) (A459; 50 μg/ml): 89.2% | OD(A570 nm) (A459; 50 μg/ml): 0.069 ± 0.010 | IR (%) (A459; 100 μg/ml): 87.1% | OD(A570 nm) (A459; 100 μg/ml): 0.082 ± 0.015 | IC50 (A459; [1]): 6.3 to 7.13 µg/mL (≈ 15.6 to 17.7 µM) | IC50 (A459; [2]): 6.72 µg/mL (≈ 16.7 µM)
